Experimental data from publication doi:10.1101/2025.04.10.648262, “Time-resolved phenotyping at subcellular resolution reveals shared principles and key trade-offs across antimicrobial peptide activities” (bioRxiv, 2026).
Like-named read-outs stand apart in the source and are kept apart here. Square brackets hold non-standard residues; d marks the D form. Ends that are not written are not given here. Peptide text beside a SMILES is read from it. * marks the point of attachment. 5TAMRA = CN(C)c1ccc2c(c1)Oc1cc(N(C)C)ccc1C21OC(=O)c2cc(C(=O)*)ccc21

Test system: E. coli (MG1655)
Format: cell-based, Escherichia coli
Experimental: For all experiments and E. coli strains, cells were grown in a medium (M9gluCAAT) with M9 salts (33.7 mM Na2HPO4, 22mM KH2PO4, 8.55 mM NaCl, 9.35 mM NH4Cl), 0.2% (w/v) glucose, 0.4% (w/v) casamino acids, 1 mM MgSO4, 0.3 mM CaCl2, 1 μg/mL thiamine, and trace elements (13.4 mM ethylene-diamine-tetra-acetic-acid (EDTA), 3.1 mM FeCl3-6H2O, 0.62 mM ZnCl2, 76 μM CuCl2-2H2O, 42 μM CoCl2-2H2O, 162 μM H3BO3, 8.1 μM MnCl2-4H2O). Prior to every experiment, cells were first inoculated into M9gluCAAT and grown to stationary phase at 37°C. For all assays except the biofilm experiments, the culture was diluted to 1/10,000 or more in fresh medium and grown at 37°C until it reached an optical density at 600 nm (OD) of 0.2–0.4. For the biofilm experiments, cells were grown in M9gluCAAT supplemented with 100 μg/mL ampicillin to maintain the GFP-expressing plasmid. The overnight stationary-phase cultures were then diluted into the same medium to an OD of 0.015. See below for details on biofilm growth.
Except for the biofilm experiments, the strains used in this study were derived from MG1655 (ATCC 47076), which was used to estimate the minimum inhibitory concentration (MIC) for all the studied peptides (or peptoids) using a microplate reader (Figure 1A). To detect the timing of outer and inner membrane permeabilization to proteins, strain CJW7845 was constructed to carry two freely diffusing fluorescent proteins: mScarlet-I in the periplasm and mTagBFP2 in the cytoplasm. Construction of CJW7845 was done by transforming pBAD-mTagBFP2 plasmid (Addgene #34632, a gift from Vladislav Verkhusha; ([Subach et al., 2011])) into an E. coli strain expressing a periplasmic mScarlet-I reporter ([Cañas-Duarte 2021]), as previously described ([Chung et al., 1989]). Transformants were restreaked on fresh selection plates and confirmed via microscopy.
To determine the minimal inhibitory concentration (MIC) of the selected AMPs against either MG1655 or ATCC 25922 E. coli strains, exponentially growing cells were diluted in fresh medium to an OD = 10^−6 (~500 cells/mL) and mixed 50:50 with titrated AMP concentrations (which were chosen to be over a range that included the MIC) in a 96-well plate (flat bottom with low evaporation lid, 3595, Corning, Arizona, USA). A final OD of 5 × 10^−7 corresponds to ~250 cells/mL. OD curves were sampled every 5 min for a total of 48 h using a microplate reader (BioTek Synergy 2, Agilent Technologies Inc., California, USA). Raw data were exported as a text file and analysed using a custom-written Python script (microplate_reader_analysis.py). To measure maximum growth rates, the log(OD) was fitted using a linear regression over a 12-point moving window (60 min), which provides the instantaneous growth rate (log(OD)/h), from which the global maximum was computed. The MIC was defined as the minimum AMP concentration for which the maximum growth rate was < 0.2 log(OD)/h within the first 20 h of incubation. Each MIC experiment was performed independently at least three times (with at least two technical replicates each), and the mode across all replicates was taken as the final MIC; in the rare cases of a tie, an additional replicate was performed, which was sufficient to resolve it.

[1] = E. coli MG1655, M9gluCAAT, 37°C, 20 h, inoculum ~250 cells/mL, mode across three biological replicates

## CC[C@H](C)[C@H](NC(=O)CNC(=O)[C@H](CC(=O)O)NC(=O)[C@H](CCCNC(=N)N)NC(=O)[C@@H](NC(=O)[C@H](CC(N)=O)NC(=O)[C@H](CCC(N)=O)NC(=O)CNC(=O)[C@@H](NC(=O)[C@H](CCCCN)NC(=O)[C@H](CCC(=O)O)NC(=O)[C@@H](NC(=O)[C@H](CCCCN)NC(=O)[C@H](CCCCN)NC(=O)[C@H](Cc1ccccc1)NC(=O)[C@H](CC(C)C)NC(=O)[C@H](CCCCN)NC(=O)[C@H](Cc1c[nH]c2ccccc12)NC(=O)[C@H](CCCCN)NC(=O)c1ccc2c(c1)C(=O)OC21c2ccc(N(C)C)cc2Oc2cc(N(C)C)ccc21)[C@@H](C)CC)C(C)C)[C@@H](C)CC)C(=O)N[C@H](C(=O)N[C@@H](CCCCN)C(=O)N[C@@H](C)C(=O)NCC(=O)N1CCC[C@H]1C(=O)N[C@@H](C)C(=O)N[C@H](C(=O)N[C@@H](C)C(=O)N[C@H](C(=O)N[C@H](C(=O)NCC(=O)N[C@@H](CCC(N)=O)C(=O)N[C@@H](C)C(=O)N[C@H](C(=O)N[C@@H](CCC(N)=O)C(=O)N[C@H](C(=O)N[C@@H](C)C(=O)N[C@@H](CCCCN)C(N)=O)[C@@H](C)CC)[C@@H](C)O)C(C)C)C(C)C)C(C)C)[C@@H](C)CC [5-TAMRA-CecA] (5TAMRA-KWKLFKKIEKVGQNIRDGIIKAGPAVAVVGQATQIAK-NH2; C-terminus assumed)
MG1655, 20 h
  MIC (mode MIC) of 5-TAMRA-labeled AMP derivatives: 2 µM

## CC[C@H](C)[C@H](NC(=O)[C@H](CCCNC(=N)N)NC(=O)[C@H](CCCNC(=N)N)NC(=O)c1ccc2c(c1)C(=O)OC21c2ccc(N(C)C)cc2Oc2cc(N(C)C)ccc21)C(=O)N[C@@H](CCCNC(=N)N)C(=O)N1CCC[C@H]1C(=O)N[C@@H](CCCNC(=N)N)C(=O)N1CCC[C@H]1C(=O)N1CCC[C@H]1C(=O)N[C@@H](CCCNC(=N)N)C(=O)N[C@@H](CC(C)C)C(=O)N1CCC[C@H]1C(=O)N[C@@H](CCCNC(=N)N)C(=O)N1CCC[C@H]1C(=O)N[C@@H](CCCNC(=N)N)C(=O)N1CCC[C@H]1C(=O)N[C@@H](CCCNC(=N)N)C(=O)N1CCC[C@H]1C(=O)N[C@@H](CC(C)C)C(=O)N1CCC[C@H]1C(=O)N[C@@H](Cc1ccccc1)C(=O)N1CCC[C@H]1C(=O)N[C@@H](CCCNC(=N)N)C(=O)N1CCC[C@H]1C(=O)NCC(=O)N1CCC[C@H]1C(=O)N[C@@H](CCCNC(=N)N)C(=O)N1CCC[C@H]1C(=O)N[C@H](C(=O)N1CCC[C@H]1C(=O)N[C@@H](CCCNC(=N)N)C(=O)N1CCC[C@H]1C(=O)N[C@@H](CC(C)C)C(=O)N1CCC[C@H]1C(=O)N[C@@H](Cc1ccccc1)C(=O)N1CCC[C@H]1C(=O)O)[C@@H](C)CC [5-TAMRA-Bac7] (5TAMRA-RRIRPRPPRLPRPRPRPLPFPRPGPRPIPRPLPFP-OH; C-terminus assumed)
MG1655, 20 h
  MIC (mode MIC) of 5-TAMRA-labeled AMP derivatives: 0.6 µM

## RRIPFWPPNWPGPWLPPWSPPDFRIPRILRKR [Tur1B]
MG1655, 20 h
  MIC (mode MIC): 8 µM

## GIGKFLHSAKKFGKAFVGEIMNS [Mag2, magainin-2]
MG1655, 20 h
  MIC (mode MIC): 40 µM

## RSIRRPRLPRPRVPRPYIPPRIPRPVLPPPRFPIPRFPRGR [CamBac, camel bactenecin]
MG1655, 20 h
  MIC (mode MIC): 0.5 µM

## CC[C@@H](C)[C@@H](NC(=O)[C@@H](C)NC(=O)[C@@H](CCCNC(=N)N)NC(=O)[C@@H](Cc1c[nH]c2ccccc12)NC(=O)[C@@H](CCC(N)=O)NC(=O)[C@H](NC(=O)c1ccc2c(c1)C(=O)OC21c2ccc(N(C)C)cc2Oc2cc(N(C)C)ccc21)C(C)C)C(=O)N[C@H](CCCNC(=N)N)C(=O)N[C@@H](C(=O)N[C@H](CCCNC(=N)N)C(=O)N[C@@H](C(=O)N[C@@H](C(=O)N[C@H](CCCNC(=N)N)C(N)=O)[C@H](C)CC)C(C)C)C(C)C [5-TAMRA-DJK-5] (5TAMRA-[dV][dQ][dW][dR][dA][dI][dR][dV][dR][dV][dI][dR]-NH2; C-terminus assumed)
MG1655, 20 h
  MIC (mode MIC) of 5-TAMRA-labeled AMP derivatives: 2.5 µM

## CC[C@H](C)[C@H](NC(=O)[C@H](CCCCN)NC(=O)[C@H](CCC(=O)O)NC(=O)[C@H](CCCCN)NC(=O)[C@H](CO)NC(=O)[C@H](CCCCN)NC(=O)[C@H](CCCNC(=N)N)NC(=O)[C@H](Cc1ccccc1)NC(=O)[C@H](Cc1ccccc1)NC(=O)[C@H](CC(=O)O)NC(=O)CNC(=O)[C@H](CC(C)C)NC(=O)[C@H](CC(C)C)NC(=O)c1ccc2c(c1)C(=O)OC21c2ccc(N(C)C)cc2Oc2cc(N(C)C)ccc21)C(=O)NCC(=O)N[C@@H](CCCCN)C(=O)N[C@@H](CCC(=O)O)C(=O)N[C@@H](Cc1ccccc1)C(=O)N[C@@H](CCCCN)C(=O)N[C@@H](CCCNC(=N)N)C(=O)N[C@H](C(=O)N[C@H](C(=O)N[C@@H](CCC(N)=O)C(=O)N[C@@H](CCCNC(=N)N)C(=O)N[C@H](C(=O)N[C@@H](CCCCN)C(=O)N[C@@H](CC(=O)O)C(=O)N[C@@H](Cc1ccccc1)C(=O)N[C@@H](CC(C)C)C(=O)N[C@@H](CCCNC(=N)N)C(=O)N[C@@H](CC(N)=O)C(=O)N[C@@H](CC(C)C)C(=O)N[C@H](C(=O)N1CCC[C@H]1C(=O)N[C@@H](CCCNC(=N)N)C(=O)N[C@H](C(=O)N[C@@H](CCC(=O)O)C(=O)N[C@@H](CO)C(=O)O)[C@@H](C)O)C(C)C)[C@@H](C)CC)C(C)C)[C@@H](C)CC [5-TAMRA-LL-37]
[1]
  MIC (mode MIC) of 5-TAMRA-labeled AMP derivatives: 2 µM

## CC[C@H](C)[C@H](NC(=O)[C@H](CCCNC(=N)N)NC(=O)[C@@H]1CCCN1C(=O)[C@@H]1CCCN1C(=O)[C@H](CC(C)C)NC(=O)[C@H](CCCNC(=N)N)NC(=O)[C@@H]1CCCN1C(=O)[C@@H]1CCCN1C(=O)[C@H](Cc1ccccc1)NC(=O)[C@H](Cc1ccccc1)NC(=O)[C@@H]1CCCN1C(=O)[C@@H]1CCCN1C(=O)[C@@H]1CCCN1C(=O)[C@H](CCCNC(=N)N)NC(=O)[C@@H]1CCCN1C(=O)[C@H](CCCNC(=N)N)NC(=O)[C@@H]1CCCN1C(=O)[C@H](CC(C)C)NC(=O)[C@H](Cc1ccc(O)cc1)NC(=O)[C@@H]1CCCN1C(=O)[C@@H]1CCCN1C(=O)[C@H](CCCNC(=N)N)NC(=O)[C@@H]1CCCN1C(=O)[C@H](CCCNC(=N)N)NC(=O)[C@H](CCCNC(=N)N)NC(=O)[C@H](CCCNC(=N)N)NC(=O)c1ccc2c(c1)C(=O)OC21c2ccc(N(C)C)cc2Oc2cc(N(C)C)ccc21)C(=O)N1CCC[C@H]1C(=O)N1CCC[C@H]1C(=O)NCC(=O)N[C@@H](Cc1ccccc1)C(=O)N1CCC[C@H]1C(=O)N1CCC[C@H]1C(=O)N[C@@H](CCCNC(=N)N)C(=O)N[C@@H](Cc1ccccc1)C(=O)N1CCC[C@H]1C(=O)N1CCC[C@H]1C(=O)N[C@@H](CCCNC(=N)N)C(=O)N[C@@H](Cc1ccccc1)C(=O)N1CCC[C@H]1C(N)=O [5-TAMRA-PR-39] (5TAMRA-RRRPRPPYLPRPRPPPFFPPRLPPRIPPGFPPRFPPRFP-NH2; C-terminus assumed)
MG1655, 20 h
  MIC (mode MIC) of 5-TAMRA-labeled AMP derivatives: 2 µM

## CO[C@H]1/C=C/O[C@@]2(C)Oc3c(C)c(O)c4c(O)c(c(/C=N/N5CCN(C)CC5)c(O)c4c3C2=O)NC(=O)/C(C)=C\C=C\[C@H](C)[C@H](O)[C@@H](C)[C@@H](O)[C@@H](C)[C@H](OC(C)=O)[C@@H]1C [Rif, rifampicin]
[1]
  MIC (mode MIC), antibiotics: 16 µg/mL

## GLLRKGGEKIGEKLKKIGQKIKNFFQKLVPQPEQ [CRAMP]
E. coli MG1655, M9gluCAAT, 37°C, 20 h, inoculum ~250 cells/mL, max growth rate < 0.2 log(OD)/h, mode across three biological replicates with two technical replicates each
  MIC (mode MIC): 4 µM

## CN[C@@H]1[C@H](O)[C@H](NC)[C@H]2O[C@@]3(O)C(=O)C[C@@H](C)O[C@H]3O[C@@H]2[C@H]1O [Spect, spectinomycin]
[1]
  MIC (mode MIC), antibiotics: 64 µg/mL
